Source: patent US11452709B2, “Compositions and methods for preventing and treating radiation-induced bystander effects caused by radiation or radiotherapy” (The Regents of the University of Colorado, priority 2017, dated 2022)
Where a chain is given by its changes, count along the chain named. Numbers in names are those of the source. Read-outs that look alike come from different tables or passages of the source.

Tests used:
[1] = target: T1, CTSB protease (Homo sapiens, UniProt P07858); assay: CTSB protease activity inhibition in vitro (z-Arg-Arg-AMC substrate); assay type: biochemical; settings: for Inhibition rate (%) of the CTSB protease activity / inhibition at 1000 µM: 1 mM of each compound; for inhibition at 1000 µM: read-out: Inhibition rate (%) of the CTSB protease activity
T1 construct: purchased Sino Biological Inc. 10483-H08H-10

[2] = system: Phsp-4::gfp stress-response reporter; assay: Phsp-4::gfp stress response assay in unexposed posterior region after localized UV irradiation (LUI); assay type: in vivo, C. elegans; settings: zcls4 L1 larvae treated with 1 mM compound for 48 h (FIG. 17)
[3] = target: T2, C. elegans CPR-4 protease (Caenorhabditis elegans, UniProt P43508); assay: CPR-4 protease activity inhibition in vitro (z-Arg-Arg-AMC substrate); assay type: biochemical; settings: 1 mM of each compound; read-out: Inhibition rate(%) of the C. elegans CPR-4 protease activity
T2 construct: a cpr-4 cDNA fragment encoding residues 16-336 was PCR amplified from the full-length cpr-4 cDNA clone; GST (N, cleaved yes); made in house; host or cells: Escherichia coli BL21(DE3)
T2 sequence (P43508 81-335): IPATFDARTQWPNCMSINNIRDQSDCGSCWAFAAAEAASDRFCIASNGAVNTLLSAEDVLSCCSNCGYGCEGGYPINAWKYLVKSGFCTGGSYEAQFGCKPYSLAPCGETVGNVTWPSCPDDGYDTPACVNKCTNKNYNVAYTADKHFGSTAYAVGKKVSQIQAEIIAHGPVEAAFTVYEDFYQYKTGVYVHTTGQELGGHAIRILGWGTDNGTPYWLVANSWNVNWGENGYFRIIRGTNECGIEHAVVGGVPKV

[4] = system: germ cell corpses in ced-1(e1735) animals; assay: Germ cell corpse assay with recombinant proteins in liquid culture; assay type: in vivo, C. elegans; settings: for Germ cell corpses in ced-1(e1735) animals: 2.8 μM tCPR-4 proteins or 0.27 μM rhCTSB, L4 larvae, 48 hours
Method: Growing C. elegans animals in 96-well plates. HB101 bacteria were mixed with 100 μL conditioned medium (0.1 μg/μL) or 100 μL S-Medium containing 2.8 μM of recombinant tCPR-4 proteins (wild-type or mutant) or 0.27 μM recombinant human cathepsin B in a 96-well plate. Approximately 60 L4 larvae were transferred into each well of the plate. After being cultured in liquid media for 48 hours, these animals were scored for the numbers of germ cell corpses and mitotic nuclei. Quantification of germ cell corpses. L4 animals were cultured in liquid media in a 96-well plate as described above. After 48 hours, they were transferred to NGM plates and allowed to recover for 1 hour at 20° C. The animals were then anesthetized by 20 mM NaN3, mounted onto 2% agar pad, and scored under Nomarski optics. For transgenic animals expressing CPR-4 in the pharynx, L4 animals were grown on NGM plates for 24 hours at 20° C. before they were scored for germ cell corpses. Only the posterior arms of intact gonads were scored. Blind tests were carried out in all germ cell corpse quantification experiments.

[5] = system: N2 animals; assay: Embryonic lethality assay in liquid media with purified proteins; assay type: in vivo, C. elegans; settings: 2.8 μM tCPR-4 proteins or 0.27 μM rhCTSB, 48 hours
Method: Embryonic lethality and larval arrest assays. For embryonic lethality assays caused by direct irradiation, after irradiated with 100 J/m^2 UV or 500 Gy gamma ray, gravid adults were placed on NGM plates to lay eggs for 4 hours at 25° C. and then removed from the plates. For embryonic lethality assays in liquid media, L4 larvae were cultured in conditioned medium or S-Medium containing the purified proteins at 20° C. for 48 hours, transferred to fresh NGM plates from the liquid media, and allowed to lay eggs for 4 hours at 25° C., before the adult animals were removed. For embryonic lethality assays in transgenic animals expressing CPR-4 in the pharynx, transgenic gravid adults at 24 hours post L4 were placed on NGM plates to lay eggs for 4 hours at 25° C. and then removed from the plates.

[6] = system: germline mitotic zone nuclei; assay: Germ cell proliferation assay (mitotic nuclei); assay type: in vivo, C. elegans; settings: 2.8 μM tCPR-4, 48 hours
Method: Growing C. elegans animals in 96-well plates. HB101 bacteria were mixed with 100 μL conditioned medium (0.1 μg/μL) or 100 μL S-Medium containing 2.8 μM of recombinant tCPR-4 proteins (wild-type or mutant) or 0.27 μM recombinant human cathepsin B in a 96-well plate. Approximately 60 L4 larvae were transferred into each well of the plate. After being cultured in liquid media for 48 hours, these animals were scored for the numbers of germ cell corpses and mitotic nuclei. Quantification of mitotic nuclei. L4 animals treated with 2.8 μM of purified tCPR-4 proteins in liquid culture for 48 hours were transferred to NGM plates and allowed to recover for 1 hour at 20° C. They were then dissected to expose their gonads following the protocol described previously. Dissected gonads were fixed and stained with DAPI. The number of germ nuclei and the number of metaphase nuclei in the mitotic zone of each gonad were scored using a Zeiss Nomarski microscope with a DAPI filter.

[7] = Protease activity of recombinant proteins in vitro; assay type: biochemical; settings: 2.8 μM tCPR-4 proteins, 0.27 μM rhCTSB; z-Arg-Arg-AMC
Method: Measurement of protease activity in vitro. The CPR-4 enzymatic assays were performed following the method described previously with some modifications. The cathepsin B-specific fluorogenic substrate, Z-Arg-Arg-7-amido-4-methylcoumarin hydrochloride (z-Arg-Arg-AMC; Peptanova, catalog number 88937-61-5), was dissolved in 2×reaction buffer, containing 25 mM Tris-HCl (pH 8.0), 100 mM NaCl, 10% (v/v) Glycerol, 0.8 mM Sodium Acetate (pH6.0), and 8 mM EDTA. For the assays, 10 μL of proteins (100 ng/μL) or 10 μL of conditioned medium (100 ng/μL) were incubated with 10 μL of 20 μM z-Arg-Arg-AMC at 25° C. for 10 minutes before measuring the […]. Enzymatic activities were determined as the mean velocities at 25° C. in a dual luminescence fluorometer EnVision (Perkin-Elmer) at an excitation wavelength of 380 nm and an emission wavelength of 460 nm, and expressed as relative intensity in kilo relative fluorescence unit (kRFU). Recombinant human cathepsin B (rhCTSB; Sino Biological Inc., catalog number 10483-H08H-10) was dissolved in a buffer recommended by the manufacturer [25 mM Tris-HCl (pH 8.0), 100 mM NaCl, 10% (v/v) glycerol, 5 mM DTT, and 0.1% Triton-X]. The buffer control unique to the CPR-4 proteins or the rhCTSB protein, or the sham-irradiated conditioned medium, was also measured using the same procedures. S-Medium was used in each experiment as the background control.

[8] = read-out: IC50 in inhibiting the CTSB protease activity
[9] = read-out: IC50 in inhibiting CTSB

## CCCNC(=O)[C@H]1O[C@@H]1C(=O)N[C@H](C(=O)N1CCC[C@H]1C(=O)O)[C@@H](C)CC (relative stereo) [CA074, N-(1-3-trans-propylcarbamoyloxirane-2-carbonyl)-1-isoleucyl-1-proline, reference compound]
[1]
  Inhibition rate (%) of the CTSB protease activity: best inhibitory effects
  inhibition at 1000 µM: 91.8%
[2]
  Bystander Phsp-4::gfp response in posterior unexposed regions after LUI at the head: abolished the bystander Phsp-4::gfp response

## O=c1cc(-c2ccc(O)cc2)oc2cc(O)cc(O)c12 [Apigenin, 5,7-Dihydroxy-2-(4-hydroxyphenyl)-4H-1-benzopyran-4-one]
[1]
  Inhibition rate (%) of the CTSB protease activity: 70.93%
  inhibition at 1000 µM: 65 to 85%

## O=c1cc(-c2ccccc2)oc2cc(O)c(O)c(O)c12 [Baicalein, 5,6,7-Trihydroxy-2-phenyl-chromen-4-one]
[1]
  inhibition at 1000 µM: 65 to 85%
[1]; [8]
  IC50: 870 nM
[3]
  inhibition at 1000 µM: 41.5%

## CCCNC(=O)[C@H]1O[C@@H]1C(=O)N[C@H](C(=O)N1CCC[C@H]1C(=O)OC)[C@@H](C)CC [CA074Me, CA074 methyl ester, reference compound]
[1]
  Inhibition rate (%) of the CTSB protease activity: best inhibitory effects
  inhibition at 1000 µM: 88.1%
[1]; [9]
  IC50: ≤ 20 nM
[1]; [8]
  IC50: < 10 nM
[2]
  Bystander Phsp-4::gfp response in posterior unexposed regions after LUI at the head: abolished the bystander Phsp-4::gfp response

## CC(C)C[C@H](NC(=O)[C@@H]1O[C@H]1C(=O)O)C(=O)NCCCCNC(=N)N [E64, N—[N-(L-3-Trans-carboxirane-2-carbonyl)-L-leucyl]-agmatine, reference compound]
[1]
  inhibition at 1000 µM: 92.1%
[1]; [9]
  IC50: ≤ 20 nM
[1]; [8]
  IC50: 20 nM
[3]
  inhibition at 1000 µM: 89.6%

## Nc1nc2ncc(CNc3ccc(C(=O)N[C@@H](CCC(=O)O)C(=O)O)cc3)nc2c(=O)[nH]1 [Folic acid]
[1]
  Enhancement of the activity of the CTSB protease: more than 4 folds
[1]; read-out: EC50 (activation of the CTSB protease)
  EC50: 1260 nM

## O=c1c(O[C@@H]2O[C@H](CO)[C@@H](O)[C@H](O)[C@H]2O)c(-c2ccc(O)c(O)c2)oc2cc(O)cc(O)c12 [Isoquercitrin, 2-(3,4-Dihydroxyphenyl)-5,7-dihydroxy-3-[(2S,3R,4S,5S,6R)-3,4,5-trihydroxy-6-(hydroxymethyl)oxan-2-yl]oxychromen-4-one]
[1]
  Inhibition of the activity of CTSB (in words): inhibit the activity of CTSB
  Inhibition rate (%) of the CTSB protease activity: 68.98%
  inhibition at 1000 µM: 65 to 85%

## O=c1c(O)c(-c2ccc(O)c(O)c2)oc2cc(O)cc(O)c12 [Quercetin, 2-(3,4-dihydroxyphenyl)-3,5,7-trihydroxy-4H-chromen-4-one]
[1]
  Inhibition of the activity of CTSB (in words): inhibit the activity of CTSB
  Inhibition rate (%) of the CTSB protease activity: 82.42%
  inhibition at 1000 µM: 65 to 85%
[1]; [8]
  IC50: 1870 nM
[3]
  inhibition at 1000 µM: 80.7%

## O=C(OC[C@H]1O[C@@H](OC(=O)c2cc(O)c(O)c(OC(=O)c3cc(O)c(O)c(O)c3)c2)[C@H](OC(=O)c2cc(O)c(O)c(OC(=O)c3cc(O)c(O)c(O)c3)c2)[C@@H](OC(=O)c2cc(O)c(O)c(OC(=O)c3cc(O)c(O)c(O)c3)c2)[C@@H]1OC(=O)c1cc(O)c(O)c(OC(=O)c2cc(O)c(O)c(O)c2)c1)c1cc(O)c(O)c(OC(=O)c2cc(O)c(O)c(O)c2)c1 [Tannic acid]
[1]
  inhibition at 1000 µM: 69.3%

## NH2-Arg-Leu-Ala-COOH—Se
[1]
  Inhibition rate (%) of the CTSB protease activity: 86.93%

B1: tCPR-4: recombinant truncated CPR-4 lacking its signal peptide (residues 1-15) (protein, UniProt P43508 81-335, looked up)
Cathepsin B-like cysteine …: T2 sequence (P43508 81-335)
[4]; 2.8 μM tCPR-4, 48 hours
  Germ cell death in ced-1(e1735); daf2(e1370) mutant: did not further reduce germ cell death
  Germ cell death in ced-1(e1735); pdk-1(sa680) animals: did not reduce germ cell death
[4]
  Germ cell corpses in ced-1(e1735) animals: reduced germ cell corpses
[5]
  Embryonic lethality of treated N2 animals: increased embryonic lethality
[6]
  Germ cell nuclei and metaphase nuclei in the mitotic zone of N2 animals: more germ cell nuclei and more metaphase nuclei in the mitotic zone

B2: tCPR-4(C109A): tCPR-4 with mutation of the conserved catalytic Cysteine residue (protein, UniProt P43508 81-335, looked up, variant C109A)
Cathepsin B-like cysteine …: T2 sequence (P43508 81-335) with C29A
[4]
  Germ cell corpses in ced-1(e1735) animals: failed to do so
[5]
  Embryonic lethality of treated N2 animals: failed to do so
[7]
  Protease activity of recombinant protein: abolished the protease activity

B3: tCPR-4(H281A) (protein, UniProt P43508 81-335, looked up, variant H281A)
Cathepsin B-like cysteine …: T2 sequence (P43508 81-335) with H201A
[4]
  Germ cell corpses in ced-1(e1735) animals: failed to do so
[5]
  Embryonic lethality of treated N2 animals: failed to do so
[7]
  Protease activity of recombinant protein: abolished the protease activity

B4: tCPR-4(N301A): tCPR-4 with mutation N301A changing a non-catalytic residue (protein, UniProt P43508 81-335, looked up, variant N301A)
Cathepsin B-like cysteine …: T2 sequence (P43508 81-335) with N221A
[4]
  Germ cell corpses in ced-1(e1735) animals: reduced germ cell corpses
[5]
  Embryonic lethality of treated N2 animals: increased embryonic lethality
[7]
  Protease activity of recombinant protein: did not affect tCPR-4 protease activity
